Data published in patent US12234216B2, “Isotopologues salts, crystalline forms, stereoisomers, of methylone and ethylone and methods of use thereof” (Terran Biosciences Inc., priority 2021, dated 2025).
Counter-ions that a name gives are not always drawn.

Assays:
[1] = system: participants diagnosed with at least moderate post-traumatic stress disorder (PTSD); assay: Double-blind, randomized, placebo-controlled clinical trial of methylone-assisted psychotherapy in PTSD; format: in vivo, human; settings: for CAPS-5 assessments compared to placebo-treated controls: Intervening Session 1C, 2C, 3C and Study Conclusion; for clinician-rated functional impairment score as measured by SDS / depression as measured by HAM-D: vs placebo-treated controls; for change in CAPS-5 assessment compared to the placebo group: 100-200 mg p.o. initial dose, 3 Experimental Sessions with psychotherapy
Experimental: A multicenter, randomized, double-blind, placebo-controlled trial is conducted to assess the efficacy and safety of methylone-assisted psychotherapy versus psychotherapy with placebo control in participants diagnosed with at least moderate post-traumatic stress disorder (PTSD).
This multicenter, randomized, double-blind, placebo-controlled trial is conducted at various sites in the United States with IRB approval from each study site. A flexible dose of methylone hydrochloride salt or placebo, followed by a supplemental half-dose unless contraindicated by patient's previous response or medical history, is also administered during the Treatment Period with psychotherapy in at least 3 blinded monthly Experimental Sessions. The Supplemental Dose extends the duration of drug effects on the participants during an Experimental Session. Methylone test groups are further subdivided into specific groups receiving only racemic methylone hydrochloride salt, S-methylone hydrochloride salt, or R-methylone hydrochloride salt. An optional Risk Evaluation and Mitigation Strategy (REMS) Protocol may be implemented for the racemic methylone, S-methylone, and placebo-groups. The Treatment Period lasts for approximately 12 weeks. During the Treatment Period, each Experimental Session is followed by three Intervening Sessions of non-drug psychotherapy. Each Experimental Session involves an overnight stay. The Primary Outcome measure, the change in Clinician Administered PTSD Scale for DSM-5 (CAPS-5), is determined by a blinded Independent Rater (IR) pool multiple times throughout the study. The study consists of separate periods for each participant. Initially, prospective participants undergo a Screening Period involving an initial eligibility assessment, a medical history intake, informed consent, and enrollment of eligible participants. Next, a Preparation Period is undertaken for enrolled participants involving medication tapering and clinical baseline assessments to confirm each participant meets enrollment criteria. As part of the Preparation Period, a detailed assessment of co-morbidities to PTSD is recorded. Participants may remain on prescribed courses of selective serotonin reuptake inhibitor (SSRI) or serotonin and norepinephrine reuptake inhibitor (SNRI) treatment. Dosages and/or frequency of administration of a prescribed SSRI or SNRI may be adjusted to fit within study parameters. Participants may be required to taper a prescribed course of medication in order to maintain eligibility within the study. The Treatment Period consists of three monthly Experimental Sessions and associated Intervening Sessions of integrative behavioral psychotherapy. The Treatment Period lasts approximately 12 weeks. Following the Treatment Period is a Follow-up Period and Study Conclusion. During the Follow-up Period and Study Conclusion, participants complete 4 weeks with no study visits, followed by a Study Conclusion visit.
This study compares the effects of three blinded Experimental Sessions of psychotherapy in combination with flexible doses of methylone or placebo administered as described below. Non-drug preparatory and intervening psychotherapy sessions are also included. Patient's weight is determined for dosage calculation. Initial dose is 100 mg unless this will result in a dosage of less than 1.5 mg/kg of patient weight. Initial dose thereby adjusted upward in 25 mg increments to deliver the lowest dose possible of at least 1.5 mg/kg of patient weight. Initial dose for Experimental Session 2 and 3 is cumulative dose calculated by adding the initial dose plus REMS protocol dose used the previous Experimental Session for each patient.
Randomization occurs prior to the initiation of Experimental Session 1. Each participant is provided the next randomized number in a sequence by a blinded study monitor. […]

[2] = system: Male Sprague-Dawley rats; assay: Rat elevated zero-maze model of anxiety; format: in vivo; settings: for decrease in SAPs compared with chlordiazepoxide / time spent in the open arms compared with chlordiazepoxide: 30 mg/kg ip vs chlordiazepoxide 6 mg/kg ip; for anxiolytic effects compared with chlordiazepoxide: high dose level; for time in the open arms: FIGS. 62-64
Description: The rat zero-maze model is a refined alternative to the plus-maze, the most widely used animal model of anxiety, and consists of an elevated annular platform, divided equally into four quadrants. Two opposite quadrants are enclosed by Perspex walls on both the inner and the outer edges of the platform, while the remaining two opposite quadrants are open being enclosed only by a Perspex “lip”. Animals will show a preference for the closed areas, and avoidance of the open sections is assumed to stem from a rodent's natural aversion to open, exposed spaces. The primary index of anxiety, which reflect changes in open arm preference, is the percentage of time spent on the open areas. A reduction in the amount of activity on the open areas is considered to reflect an increase in anxiety. Other, ethologically-based behaviours are also assessed as indices of anxiety. One of the most important is stretched attend postures (SAP) from closed to open quadrants. […] Shepherd, J K; et al., (1994) Behavioural and pharmacological validation of the elevated “zero-maze” as an animal model of anxiety. Psychopharmacol., 116:56-64.
Male Sprague-Dawley 200-250 g (Envigo UK) rats were used. Animals were group-housed (5 per cage; cage size: 40×40×20 cm) in a temperature-controlled environment (22±2° C.), under a 12 h light-dark cycle (lights on: 08:00 hours) for one week prior to testing. Food and water were freely available. Number of animals per group=5. Animals were moved into the experimental room 16-24 hours before testing.
The elevated 0-maze comprises a black Perspex annular platform (105 cm diameter, 10 cm width) elevated to 65 cm above ground level, divided equally into four quadrants. Two opposite quadrants are enclosed by clear red Perspex walls (27 cm high) on both the inner and outer edges of the platform, while the remaining two opposite quadrants are surrounded only by a Perspex “lip” (1 cm high) which serves as a tactile guide to animals on these open areas.
Subjects were weighed and tail marked before being injected. After a specified pre-treatment time, subjects were placed in a closed quadrant and a 5-min test period were recorded on videotape for subsequent analysis. The maze were cleaned with 5% methanol/water solution and dried thoroughly between test sessions. Behavioural measures comprise percentage time spent on the open areas (% TO) and frequency of stretched attend postures (SAP) from closed to open quadrants. Since the control groups were all treated identically with the same vehicle these were combined to increase power. The Chlordiazepoxide groups were also treated identically with the same dose so these were also combined to increase power. Animals are scored as being in the open area when all four paws were in an open quadrant and in the closed area only when all four paws have passed over the open-closed divide. All testing were carried out between 9.00 and 16.00 hours.
For each study, a 1-way ANOVA was conducted across vehicle, CDP, and drug treatment groups. Each group was compared to the vehicle group and a p-value for treatment determined by Fishers Least Significant Difference (LSD) test. This analysis was performed in GraphPad Prism (Version 9). Formulations: […]
Intraperitoneal (IP): Racemic methylone HCl was formulated in Vehicle 1 (Saline) for injection to concentrations of 1, 3 and 6 mg/mL to provide doses of 5, 15 and 30 mg/kg when administered ip in 5 mL/kg dosing volumes.
Intraperitoneal (IP): S-methylone HCl was formulated in Vehicle 1 (Saline) for injection to concentrations of 0.5, 1, 1.5, 3 and 6 mg/mL to provide doses of 2.5, 5, 7.5, 15 and 30 mg/kg when administered ip in 5 mL/kg dosing volumes.
Intraperitoneal (IP): R-methylone HCl was formulated in Vehicle 1 (Saline) for injection to concentrations of 1, 3 and 6 mg/mL to provide doses of 5, 15 and 30 mg/kg when administered ip in 5 mL/kg dosing volumes. […]

[3] = Metabolic stability in human liver microsomes; format: in vitro ADME; settings: for difference in half-life and intrinsic clearance compared with the corresponding non-deuterated methylone hydrochloride: human liver microsomes
Experimental: Pooled liver microsomes are purchased from a reputable commercial supplier. Microsomes are stored at […] prior to use. Microsomes (final protein concentration 0.5 mg/mL), 0.1 M phosphate buffer pH 7.4 and test compound (final substrate concentration 1 μM; final DMSO concentration 0.25%) are preincubated at 37° C. prior to the addition of NADPH (final concentration 1 mM) to initiate the reaction. A minus cofactor control incubation is included for each compound tested where 0.1 M phosphate buffer pH 7.4 is added instead of NADPH (minus NADPH). Two control compounds are included with each species. All incubations are performed singularly for each test compound. Each compound is incubated for 0, 5, 15, 30 and 45 min. The control (minus NADPH) is incubated for 45 min only. The reactions are stopped by transferring incubate into acetonitrile at the appropriate time points, in a 1:3 ratio. The termination plates are centrifuged at 3,000 rpm for 20 min at 4° C. to precipitate the protein.
From a plot of ln peak area ratio (compound peak area/internal standard peak area) against time, the gradient of the line is determined. Subsequently, half-life and intrinsic clearance are calculated using the equations below: Elimination rate constant (k)=(−gradient) Half-life (t½)(min)=0.693/k Intrinsic clearance (CLint)(μL/min/mg protein)=V×0.693/t½ where V=Incubation volume (μL)/Microsomal protein (mg)
Relevant control compounds were assessed, ensuring intrinsic clearance values fall within the specified limits (if available).

[4] = specific doses, ip, 30 min pretest
[5] = specific doses, ip, 30 min pretest, vs chlordiazepoxide 6 mg/kg, FIGS. 65-67

| Structure (SMILES) | CAPS-5 assessments compared to placebo-treated controls [1] | daytime sleepiness as measured by ESS ([1]; Study Conclusion) | clinician-rated functional impairment score as measured by SDS ([1]; Study Conclusion) | depression as measured by HAM-D ([1]; Study Conclusion) | change in CAPS-5 assessment compared to the placebo group ([1]; Study Conclusion) | decrease in SAPs compared with chlordiazepoxide [2] | time spent in the open arms compared with chlordiazepoxide [2] | anxiolytic effects compared with chlordiazepoxide [2] | time in the open arms [2, 4] | frequency of SAPs [2, 5] | difference in half-life and intrinsic clearance compared with the corresponding non-deuterated methylone hydrochloride [3] | also measured |
| --- | --- | --- | --- | --- | --- | --- | --- | --- | --- | --- | --- | --- |
| CN[C@@H](C)C(=O)c1ccc2c(c1)OCO2 [(S)-Methylone Hydrochloride, (S)-1-(benzo[d][1,3]dioxol-5-yl)-2-(methylamino)propan-1-one hydrochloride] | Significant improvements in CAPS-5 assessments | significant improvement in lessening daytime sleepiness | significant improvement in clinician-rated functional impairment score | significant improvement depression | significant mean reduction in CAPS-5 assessment | even more effective than chlordiazepoxide at reducing SAPs | as effective as chlordiazepoxide at increasing time spent in the open arms | anxiolytic effects as effective as chlordiazepoxide | increase time in the open arms | decreased the frequency of SAPs as effectively as the benzodiazepine chlordiazepoxide | – | total dosage of drug needed for significant mean reduction in CAPS-5, compared to the racemic methylone-treated subgroup ([1]; Study Conclusion): lower total dosage of drug; frequency of SAPs, trend with dose ([2]; 2.5 mg/kg and 5 mg/kg ip): dose dependent increase in SAPs; time spent in the open arms, trend with dose ([2]; 5 mg/kg, 7.5 mg/kg and 15 mg/kg ip): time spent in the open arms decreased as the dose increased; frequency of SAPs, trend with dose ([2]; 7.5 mg/kg, 15 mg/kg and 30 mg/kg ip): dose dependent decrease in SAPS; overall effect on anxiety ([2]; 30 mg/kg ip): effective anxiolytic on all measures; time spent in the open arms ([2]; 30 mg/kg ip): time in the open arms increased; anxiogenic effects at lower doses ([2]; ip, hydrochloride): anxiogenic effects at lower doses |
| Cl.[2H]C([2H])([2H])N[C@@H](C)C(=O)c1ccc2c(c1)OC([2H])([2H])O2 [(S)-Methylone-d5 hydrochloride, (S)-1-(benzo[d][1,3]dioxol-5-yl-2,2-d2)-2-((methyl-d3)amino)propan-1-one hydrochloride] | – | – | – | – | – | – | – | – | – | – | most significant difference in half-life and intrinsic clearance | CLint (μL/min/mg protein) ([3]; human liver microsomes 0.5 mg/mL, 1 μM compound, NADPH, 0-45 min): 9.07 μL/min/mg protein |
| Cl.[2H]C1([2H])Oc2ccc(C(=O)[C@@H](C)NC)cc2O1 [(R)-Methylone-d2 hydrochloride, (R)-1-(benzo[d][1,3]dioxol-5-yl-2,2-d2)-2-((methyl)amino)propan-1-one HCl] | – | – | – | – | – | – | – | – | – | – | differences in half-life and intrinsic clearance | – |
| CN[C@H](C)C(=O)c1ccc2c(c1)OCO2 [(R)-Methylone Hydrochloride, (R)-1-(benzo[d][1,3]dioxol-5-yl)-2-(methylamino)propan-1-one hydrochloride] | Significant improvements in CAPS-5 assessments | significant improvement in lessening daytime sleepiness | significant improvement in clinician-rated functional impairment score | significant improvement depression | significant mean reduction in CAPS-5 assessment | to the same level as chlordiazepoxide | as effective as chlordiazepoxide | anxiolytic effects as effective as chlordiazepoxide | increase time in the open arms | decreased the frequency of SAPs as effectively as the benzodiazepine chlordiazepoxide | – | adverse anxiogenic incidents ([1]; compared to placebo-treated controls): without a significant increase in adverse anxiogenic incidents; frequency of SAPs ([2]; 30 mg/kg ip): significantly decreasing SAPs; frequency of SAPs, trend with dose ([2]; 5, 15 and 30 mg/kg ip): dose dependent decrease in SAPs; time spent in the open arms, trend with dose ([2]; 5, 15 and 30 mg/kg ip): dose dependent increase in time spent in the open arms; anxiogenic effect ([2]; any dose (5, 15, 30 mg/kg ip)): did not show any anxiogenic effect at any dose; anxiogenic effects at lower doses ([2]; ip): not seen |
